Reference: paper PMC11003481, “Synthesis, biological evaluation, and computational studies of N-benzyl pyridinium–curcumin derivatives as potent AChE inhibitors with antioxidant activity” (Journal of Enzyme Inhibition and Medicinal Chemistry, 2023)

What was measured:
[1] = biological target: acetylcholinesterase (eeAChE, from Electrophorus electricus) (Electrophorus electricus, UniProt O42275); assay: biochemical; settings: for Selectivity Index (SI) (AChE): Selectivity ratio [IC50(BChE)/IC50(AChE)]; for IC50: eeAChE, mean ± SEM of three independent experiments, duplicate samples, read-out: IC50 ± SEM AChE
Chain of acetylcholinesterase (eeAChE, from Electrophorus electricus) (O42275 24-633): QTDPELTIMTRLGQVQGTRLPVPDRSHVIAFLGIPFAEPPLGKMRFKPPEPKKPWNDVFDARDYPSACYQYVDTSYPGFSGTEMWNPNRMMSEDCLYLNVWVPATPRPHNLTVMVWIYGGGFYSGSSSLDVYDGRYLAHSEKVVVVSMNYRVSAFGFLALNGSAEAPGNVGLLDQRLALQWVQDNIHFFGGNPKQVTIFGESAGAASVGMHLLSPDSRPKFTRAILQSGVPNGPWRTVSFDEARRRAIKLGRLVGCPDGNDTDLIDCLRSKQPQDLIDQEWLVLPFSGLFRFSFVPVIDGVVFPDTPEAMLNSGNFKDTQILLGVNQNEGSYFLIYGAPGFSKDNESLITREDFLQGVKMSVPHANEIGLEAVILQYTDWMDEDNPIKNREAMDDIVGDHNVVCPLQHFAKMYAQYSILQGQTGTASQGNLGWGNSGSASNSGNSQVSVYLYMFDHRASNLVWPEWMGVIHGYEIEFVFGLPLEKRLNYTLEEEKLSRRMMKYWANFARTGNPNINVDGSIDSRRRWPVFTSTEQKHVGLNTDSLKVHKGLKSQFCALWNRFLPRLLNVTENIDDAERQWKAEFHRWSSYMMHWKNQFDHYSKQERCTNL
Method: (§1) The AChE and BChE inhibitory activity assays were performed using a BioTek Epoch 2 microplate spectrophotometer in clear, flat-bottom 96-well plates. […] To each well, 295 µL phosphate buffer pH 8.0, 10 µL enzyme solution (AChE/BChE), and 10 µL target compound solutions were added together and allowed to stand for 4 min at room temperature. Then, 10 µL of 0.01 M solution freshly prepared Ellman’s reagent 5,5′-dithiobis(2-nitrobenzoic acid) (DTNB) was added to each well. The reaction in the wells was started by the addition of 2 µL of 0.075 M solution freshly prepared substrate (ATCh (acetylthiocholine iodide)/BTCh (S-butyrylthiocholine iodide)) solution. The solution was mixed immediately and incubated for 2:30 min for AChE or for 5 min for BChE inside the microplate reader at 26 °C. […] The IC50 values were calculated graphically by nonlinear regression analysis of inhibition curves that were obtained by plotting the logarithm of the inhibitor concentrations versus the percentage of inhibition (log(inhibitor) vs. normalised response) using GraphPad Prism 8 software (See Supplementary Information for details).

[2] = biological target: T1, butyrylcholinesterase (eqBChE, from equine serum) (Equus caballus, UniProt P81908); assay: biochemical; settings: mean ± SEM of three independent experiments, duplicate samples, read-out: IC50 ± SEM BChE
T1 construct: butyrylcholinesterase (eqBChE, from equine serum); from tissue; host or cells: equine serum
T1 sequence (P81908 whole entry): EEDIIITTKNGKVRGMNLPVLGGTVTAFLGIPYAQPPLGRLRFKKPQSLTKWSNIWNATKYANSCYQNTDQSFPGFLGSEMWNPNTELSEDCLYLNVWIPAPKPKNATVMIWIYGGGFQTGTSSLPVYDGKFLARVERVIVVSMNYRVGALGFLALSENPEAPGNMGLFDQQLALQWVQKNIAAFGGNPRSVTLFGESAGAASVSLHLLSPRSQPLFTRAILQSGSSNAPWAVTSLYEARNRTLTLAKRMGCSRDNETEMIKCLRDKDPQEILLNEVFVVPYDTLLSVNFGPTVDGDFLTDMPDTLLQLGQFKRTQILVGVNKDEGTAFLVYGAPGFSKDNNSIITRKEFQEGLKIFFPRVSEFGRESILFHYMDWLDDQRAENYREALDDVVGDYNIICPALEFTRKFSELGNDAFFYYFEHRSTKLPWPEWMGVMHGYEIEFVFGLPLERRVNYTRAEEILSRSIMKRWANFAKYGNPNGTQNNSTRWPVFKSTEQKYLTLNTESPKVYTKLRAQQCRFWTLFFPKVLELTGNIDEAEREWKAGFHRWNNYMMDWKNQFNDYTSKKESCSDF
Method: as §1

[3] = ABTS radical cation decolorisation antioxidant assay
Method: The antioxidant activity was determined using a radical cation (ABTS^.+) decolorisation assay, as described by Xiao et al.[21] with a few modifications. The assay used a BioTek Epoch 2 microplate spectrophotometer (Agilent, USA) with clear, flat-bottom 96-well plates. The 7 mmol/L ABTS^.+ stock solution was prepared by dissolving 96.02 mg ABTS in acetic acid buffer (pH 4.5) and to a final volume of 25 ml, which was kept in the dark at 0–4 °C. A 2.45 mmol/L potassium persulfate (K2S2O8) stock solution was prepared by dissolving 66.24 mg K2S2O8 in acetic acid buffer solution with pH 4.5, and then diluted to 100 ml and kept in the dark at 0–4 °C. The ABTS working solution was prepared by mixing similar quantities of 7 mmol/L ABTS and 2.45 mmol/L K2S2O8. This solution was stored in a dark cabinet for 16 h before use, when it was diluted with distilled water to obtain an absorbance of 0.70 at 734 nm. In a clear, flat-bottom 96-well plate, 200 μL of ABTS working solution and 10.0 μL sample solution at different concentrations (0.0312–0.5 mg/mL) were mixed well and incubated in the dark for 7 min before the absorbance was measured at 734 nm using a microplate reader. A blank was run for each assay, and all measurements were performed after 7 min. The ABTS scavenging capacity of inhibitors was compared with that of trolox and α-tocopherol. […]

[4] = biological target: eeAChE (Electrophorus electricus, UniProt O42275); assay: biochemical; type: biochemical; settings: from slopes of Lineweaver-Burk plots versus inhibitor concentration; substrate ATCh; read-out: Ki ± SEM eeAChE
Chain of eeAChE (O42275 24-633): as the sequence (O42275 24-633) above
Method: The slopes of the Lineweaver-Burk reciprocal plots against the concentrations of the compound (inhibitor) were plotted to obtain the Ki values for the prepared compounds (Table 1). The value at which the line intersects the x-axis is -Ki.
The assay was performed in triplicate using different inhibitor concentrations. […] The assay was carried out in clear, flat-bottom 96-well plates, to which 5 µL distilled water was added to all wells of columns 2–3, rows B-F. Then, 5 µL of the lowest concentration of inhibitor solution was added to the wells of columns 4–5, 5 µL of the median concentration of inhibitor solution was added to the wells of columns 6–7, and 5 µL of the highest concentration of inhibitor solution was added to the wells of columns 8–9. Next, 275 μL enzyme solution was added to the wells, and the plates were incubated for 4 min. Then, 10 μL 2.5 mM DTNB was added to the wells, followed by 10 μL of 32, 16, 8, 4, or 2 mM ATCh solutions to initiate the reactions. The plates were placed in a microplate reader for direct kinetic measurements.
The inhibition constant (Ki) for each inhibitor was calculated by averaging the ATCh hydrolysis rates from three independent experiments. Using GraphPad Prism 8 software, nonlinear regression was used to calculate the Km and Vmax values of the Michaelis-Menten kinetics by plotting [substrate] versus velocity. For the Lineweaver-Burk plots, linear regression was used to plot [1/ATCh] versus […]. Finally, the Ki values were obtained by plotting the slopes against [inhibitor] [20].

COc1cc(/C=C/C(=O)/C=C/c2ccc[n+](Cc3ccc(F)cc3)c2)ccc1O [8 g, 1–(4-Fluorobenzyl)-3-(1E,4E)-5–(4-hydroxy-3-methoxyphenyl)-3-oxopenta-1,4-dien-1-yl)pyridin-1-ium bromide]
Selectivity Index (SI) (AChE) [1]: 79
IC50 [1]: 16 ± 0.24 nM
IC50 [2]: 1200 ± 97 nM
ABTS Inhibition % ([3]; 0.0312 mg/mL): 6.1 ± 0.71%
ABTS Inhibition % ([3]; 0.0625 mg/mL): 13.7 ± 0.52%
ABTS Inhibition % ([3]; 0.125 mg/mL): 24.7 ± 0.51%
ABTS Inhibition % ([3]; 0.25 mg/mL): 39.5 ± 0.38%
Ki [4]: 10 ± 0.025 nM

O=C(/C=C/c1ccccc1)/C=C/c1cc[n+](Cc2ccc(F)cc2)cc1 [Compound 7b]
Selectivity Index (SI) (AChE) [1]: 21
IC50 [1]: 52 ± 0.18 nM
IC50 [2]: 1070 ± 80 nM
ABTS Inhibition % ([3]; 0.0312 mg/mL): 0.5 ± 0.47%
ABTS Inhibition % ([3]; 0.0625 mg/mL): 1.4 ± 0.07%
ABTS Inhibition % ([3]; 0.125 mg/mL): 3.3 ± 0.10%
ABTS Inhibition % ([3]; 0.25 mg/mL): 6.2 ± 0.50%
ABTS Inhibition % ([3]; 0.5 mg/mL): 7.1 ± 0.59%
Ki [4]: 56 ± 0.016 nM

COc1cc(/C=C/C(=O)/C=C/c2cc[n+](Cc3ccc(F)cc3)cc2)ccc1O [7 g, 1–(4-Fluorobenzyl)-4-(1E,4E)-5–(4-hydroxy-3-methoxyphenyl)-3-oxopenta-1,4-dien-1-yl)pyridin-1-ium bromide]
Selectivity Index (SI) (AChE) [1]: 65
IC50 [1]: 16 ± 0.18 nM
IC50 [2]: 1040 ± 81 nM
ABTS Inhibition % ([3]; 0.0312 mg/mL): 6.1 ± 0.82%
ABTS Inhibition % ([3]; 0.0625 mg/mL): 13.9 ± 0.68%
ABTS Inhibition % ([3]; 0.125 mg/mL): 22.5 ± 0.77%
ABTS Inhibition % ([3]; 0.25 mg/mL): 30.2 ± 1.86%
ABTS Inhibition % ([3]; 0.5 mg/mL): 52.1 ± 1.58%
Ki [4]: 6 ± 0.031 nM

COc1cc(/C=C/C(=O)/C=C/c2ccc[n+](Cc3ccccc3)c2)ccc1O [Compound 8f, 1-Benzyl-3-(1E,4E)-5–(4-hydroxy-3-methoxyphenyl)-3-oxopenta-1,4-dien-1-yl)pyridin-1-ium bromide]
IC50 [1]: 17 ± 0.17 nM
IC50 [2]: 3500 ± 95 nM
ABTS Inhibition % ([3]; 0.0312 mg/mL): 7.7 ± 0.97%
ABTS Inhibition % ([3]; 0.0625 mg/mL): 15.8 ± 0.18%
ABTS Inhibition % ([3]; 0.125 mg/mL): 25.4 ± 0.57%
ABTS Inhibition % ([3]; 0.25 mg/mL): 39.3 ± 0.23%
Ki [4]: 16 ± 0.022 nM
